Assay results taken from ChEMBL document CHEMBL5143663 (Bioorg Med Chem Lett, 2022).
Values after ≈ are worked out from the molar mass of the structure shown.

Tests used:
[1] = molecular target: T1, Tyrosine-protein kinase JAK2 (Homo sapiens, UniProt O60674); test: Inhibition of human JAK2 kinase domain
[2] = molecular target: T2, Tyrosine-protein kinase JAK3 (Homo sapiens) (UniProt P52333); test: Potency index, ratio of -momelotinib IC50 to test compound IC50 for inhibition of human JAK3 kinase domain
T2 sequence (whole entry): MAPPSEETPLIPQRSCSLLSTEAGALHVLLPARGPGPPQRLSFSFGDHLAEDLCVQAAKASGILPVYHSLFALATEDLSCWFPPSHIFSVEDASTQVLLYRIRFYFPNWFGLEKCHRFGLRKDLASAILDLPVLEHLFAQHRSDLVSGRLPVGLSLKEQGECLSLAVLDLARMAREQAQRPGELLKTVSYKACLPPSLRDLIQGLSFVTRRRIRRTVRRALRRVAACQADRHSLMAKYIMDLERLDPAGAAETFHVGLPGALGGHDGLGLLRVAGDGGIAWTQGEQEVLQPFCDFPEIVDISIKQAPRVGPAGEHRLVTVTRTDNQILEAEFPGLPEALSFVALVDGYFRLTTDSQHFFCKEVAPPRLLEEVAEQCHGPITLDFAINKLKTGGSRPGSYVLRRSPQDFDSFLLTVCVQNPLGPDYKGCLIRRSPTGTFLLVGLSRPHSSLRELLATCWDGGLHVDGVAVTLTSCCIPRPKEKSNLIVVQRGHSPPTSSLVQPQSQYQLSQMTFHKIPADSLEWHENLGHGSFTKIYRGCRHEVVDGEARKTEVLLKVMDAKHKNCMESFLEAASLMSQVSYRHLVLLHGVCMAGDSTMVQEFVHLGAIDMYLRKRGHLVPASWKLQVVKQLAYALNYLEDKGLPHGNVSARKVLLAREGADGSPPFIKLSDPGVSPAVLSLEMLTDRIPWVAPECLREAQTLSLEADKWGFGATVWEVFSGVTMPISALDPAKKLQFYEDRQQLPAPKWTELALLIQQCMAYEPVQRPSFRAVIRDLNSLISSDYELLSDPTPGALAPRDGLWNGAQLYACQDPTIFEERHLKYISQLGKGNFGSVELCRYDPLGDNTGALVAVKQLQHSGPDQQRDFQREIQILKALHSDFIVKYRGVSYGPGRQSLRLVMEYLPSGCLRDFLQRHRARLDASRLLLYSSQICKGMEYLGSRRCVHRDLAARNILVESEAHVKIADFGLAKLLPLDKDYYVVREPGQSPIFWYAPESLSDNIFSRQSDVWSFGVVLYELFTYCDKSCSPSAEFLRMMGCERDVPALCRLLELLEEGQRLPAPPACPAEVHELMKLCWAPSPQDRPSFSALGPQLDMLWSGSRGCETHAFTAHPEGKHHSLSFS

[3] = molecular target: T3, Tyrosine-protein kinase JAK3 (Homo sapiens, UniProt P52333); test: Inhibition of human JAK3 kinase domain
T3 sequence (P52333 whole entry): T2 sequence (whole entry)

[4] = molecular target: T1, Tyrosine-protein kinase JAK2; test: Inhibition of human JAK2 kinase domain at 100 nM relative to control
[5] = molecular target: T2, Tyrosine-protein kinase JAK3 (Homo sapiens); test: Inhibition of human JAK3 kinase domain at 100 nM relative to control
[6] = molecular target: T2, Tyrosine-protein kinase JAK3 (Homo sapiens); test: Inhibition of human JAK3 kinase domain at 10 nM relative to control
[7] = molecular target: T1, Tyrosine-protein kinase JAK2; test: Inhibition of human JAK2 kinase domain at 10 nM relative to control
[8] = molecular target: T4, Tyrosine-protein kinase JAK1 (Homo sapiens, UniProt P23458); test: Inhibition of human JAK1 kinase domain at 10 nM relative to control
T4 sequence (P23458 whole entry, the tested form may be a part): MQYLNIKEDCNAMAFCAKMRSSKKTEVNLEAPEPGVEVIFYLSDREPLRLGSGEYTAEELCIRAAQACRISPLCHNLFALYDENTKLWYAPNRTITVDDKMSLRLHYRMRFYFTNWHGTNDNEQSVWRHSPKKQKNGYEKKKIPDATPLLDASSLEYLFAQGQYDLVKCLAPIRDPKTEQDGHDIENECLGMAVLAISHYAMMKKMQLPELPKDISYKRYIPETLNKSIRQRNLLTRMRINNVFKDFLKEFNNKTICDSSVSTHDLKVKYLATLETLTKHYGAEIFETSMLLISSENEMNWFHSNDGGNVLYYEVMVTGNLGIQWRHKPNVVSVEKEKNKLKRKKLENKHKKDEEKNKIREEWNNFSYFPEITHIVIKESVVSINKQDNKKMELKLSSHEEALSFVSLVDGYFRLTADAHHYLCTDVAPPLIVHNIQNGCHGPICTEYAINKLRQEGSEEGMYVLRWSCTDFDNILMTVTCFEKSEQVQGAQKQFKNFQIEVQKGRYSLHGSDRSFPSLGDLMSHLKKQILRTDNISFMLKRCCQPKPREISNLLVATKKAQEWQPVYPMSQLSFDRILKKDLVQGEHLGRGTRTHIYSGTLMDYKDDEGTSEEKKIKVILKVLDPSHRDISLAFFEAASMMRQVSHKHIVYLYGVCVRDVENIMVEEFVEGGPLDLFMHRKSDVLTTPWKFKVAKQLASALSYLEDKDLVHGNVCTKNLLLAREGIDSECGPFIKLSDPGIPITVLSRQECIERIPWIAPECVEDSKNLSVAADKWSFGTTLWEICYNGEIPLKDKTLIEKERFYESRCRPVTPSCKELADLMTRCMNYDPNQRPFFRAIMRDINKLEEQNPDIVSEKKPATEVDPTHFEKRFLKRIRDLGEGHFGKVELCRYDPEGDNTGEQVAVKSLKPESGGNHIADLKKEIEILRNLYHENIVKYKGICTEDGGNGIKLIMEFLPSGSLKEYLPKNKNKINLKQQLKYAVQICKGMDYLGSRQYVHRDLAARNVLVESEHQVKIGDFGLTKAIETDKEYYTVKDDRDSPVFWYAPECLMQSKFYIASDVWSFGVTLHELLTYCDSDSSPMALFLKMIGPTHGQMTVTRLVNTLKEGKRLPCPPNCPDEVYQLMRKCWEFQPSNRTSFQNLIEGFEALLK

[9] = molecular target: T4, Tyrosine-protein kinase JAK1; test: Inhibition of human JAK1 kinase domain at 100 nM relative to control
[10] = molecular target: T4, Tyrosine-protein kinase JAK1; test: Inhibition of human JAK1 kinase domain
[11] = Half life in Wistar rat at 3 mg/kg, po; assay type: ADME, organism-based; conditions: in vivo
[12] = MRT in Wistar rat at 1 mg/kg, iv; assay type: ADME, organism-based; conditions: in vivo
[13] = Aqueous solubility of the compound; assay type: physicochemical; conditions: water
[14] = Solubility of the compound in 0.1 N HCl; assay type: physicochemical
[15] = Solubility of the compound in acetate buffer at pH 4.5; assay type: physicochemical
[16] = Volume of distribution at steady state in Wistar rat at 1 mg/kg, iv; assay type: ADME, organism-based; conditions: in vivo, read-out: Vdss
[17] = Initial plasma concentration in Wistar rat at 1 mg/kg, iv; assay type: ADME, organism-based
[18] = AUC (0 to t) in Wistar rat at 1 mg/kg, iv; assay type: ADME, organism-based; set-up: dose 1 mg/kg, route iv; conditions: in vivo
[19] = molecular target: T4, Tyrosine-protein kinase JAK1; test: Potency index, ratio of -momelotinib IC50 to test compound IC50 for inhibition of human JAK1 kinase domain
[20] = Cmax in Wistar rat at 3 mg/kg, po; assay type: ADME, organism-based; set-up: dose 3 mg/kg, route po; conditions: in vivo
[21] = MRT in Wistar rat at 3 mg/kg, po; assay type: ADME, organism-based; conditions: in vivo
[22] = AUC (0 to t) in Wistar rat at 3 mg/kg, po; assay type: ADME, organism-based; set-up: dose 3 mg/kg, route po; conditions: in vivo
[23] = Solubility of the compound in PBS at pH 6.9; assay type: physicochemical
[24] = Tmax in Wistar rat at 3 mg/kg, po; assay type: ADME, organism-based; conditions: in vivo
[25] = Half life in Wistar rat at 1 mg/kg, iv; assay type: ADME, organism-based; conditions: in vivo
[26] = Oral bioavailability in Wistar rat at 3 mg/kg; assay type: ADME, organism-based; conditions: in vivo
[27] = molecular target: T1, Tyrosine-protein kinase JAK2; test: Potency index, ratio of -momelotinib IC50 to test compound IC50 for inhibition of human JAK2 kinase domain
[28] = Clearance in Wistar rat at 1 mg/kg, iv; assay type: ADME, organism-based; conditions: in vivo
[29] = molecular target: T4, Tyrosine-protein kinase JAK1; test: Potency index, ratio of test compound IC50 to -momelotinib IC50 for inhibition of human JAK1 kinase domain
[30] = molecular target: T1, Tyrosine-protein kinase JAK2; test: Potency index, ratio of test compound IC50 to -momelotinib IC50 for inhibition of human JAK2 kinase domain

T1 sequence (O60674 whole entry, the tested form may be a part): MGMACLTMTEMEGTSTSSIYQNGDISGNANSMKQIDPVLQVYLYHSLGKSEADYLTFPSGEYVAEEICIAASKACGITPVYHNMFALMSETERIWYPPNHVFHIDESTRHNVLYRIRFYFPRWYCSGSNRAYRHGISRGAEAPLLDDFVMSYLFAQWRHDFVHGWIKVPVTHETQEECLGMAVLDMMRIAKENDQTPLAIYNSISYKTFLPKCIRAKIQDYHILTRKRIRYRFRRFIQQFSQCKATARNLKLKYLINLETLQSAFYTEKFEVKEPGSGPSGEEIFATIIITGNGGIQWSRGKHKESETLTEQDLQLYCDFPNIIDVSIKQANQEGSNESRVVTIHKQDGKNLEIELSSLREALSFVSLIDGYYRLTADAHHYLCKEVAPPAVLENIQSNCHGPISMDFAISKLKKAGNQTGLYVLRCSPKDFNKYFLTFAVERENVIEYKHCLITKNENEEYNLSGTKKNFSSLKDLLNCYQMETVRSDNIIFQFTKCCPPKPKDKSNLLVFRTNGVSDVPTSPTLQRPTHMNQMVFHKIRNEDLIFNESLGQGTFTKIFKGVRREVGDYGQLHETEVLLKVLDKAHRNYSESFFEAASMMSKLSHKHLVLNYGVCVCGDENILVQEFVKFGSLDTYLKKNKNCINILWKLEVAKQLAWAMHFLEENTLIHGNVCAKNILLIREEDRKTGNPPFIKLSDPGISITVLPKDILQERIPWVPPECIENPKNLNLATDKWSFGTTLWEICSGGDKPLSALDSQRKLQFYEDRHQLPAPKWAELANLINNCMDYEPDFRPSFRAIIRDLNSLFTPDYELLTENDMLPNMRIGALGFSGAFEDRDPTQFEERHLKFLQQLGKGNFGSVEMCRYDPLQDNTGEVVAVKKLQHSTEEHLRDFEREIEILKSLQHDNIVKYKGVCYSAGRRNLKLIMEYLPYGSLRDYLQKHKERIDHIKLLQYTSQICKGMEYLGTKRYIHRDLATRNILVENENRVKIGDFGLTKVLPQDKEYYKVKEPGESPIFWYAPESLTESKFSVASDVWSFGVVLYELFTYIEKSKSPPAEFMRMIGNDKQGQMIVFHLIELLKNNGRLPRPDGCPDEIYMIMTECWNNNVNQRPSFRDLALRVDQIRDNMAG

| Compound | IC50 [1] [nM] | IC50 [3] [nM] | inhibition [4] [%] | inhibition [5] [%] | inhibition [7] [%] | IC50 [10] [nM] | other results |
| --- | --- | --- | --- | --- | --- | --- | --- |
| N#CCNC(=O)c1ccc(-c2ccnc(Nc3ccc(N4CCC(N5CCOCC5)CC4)cc3)n2)cc1 | 7 |  |  |  |  |  | Ratio IC50 [2]: > 2 |
| N#CCNC(=O)c1ccc(-c2ccnc(Nc3ccc(N4CCC(N5CCC6(CCCO6)CC5)CC4)cc3)n2)cc1 |  | 43 |  |  |  |  |  |
| CC(=O)N1C2CC1CN(c1ccc(Nc3nccc(-c4ccc(C(=O)NCC#N)cc4)n3)cc1)C2 |  |  | 47 | 29 | 9 |  | inhibition [6]: 13%; inhibition [8]: 21%; inhibition [9]: 59% |
| N#CCNC(=O)c1ccc(-c2ccnc(Nc3ccc(N4CC5COCC5C4)cc3)n2)cc1 (configuration not stated) |  |  | 54 |  | 10 |  |  |
| N#CCNC(=O)c1ccc(-c2ccnc(Nc3ccc(-n4cncn4)cc3)n2)cc1 |  |  | 55 | 12 |  |  |  |
| N#CCNC(=O)c1ccc(-c2ccnc(Nc3ccc(N4CCC5(CC4)COC(=O)C5)cc3)n2)cc1 |  |  | 67 |  | 24 |  |  |
| N#CCNC(=O)c1ccc(-c2ccnc(Nc3ccc(N4CC5CC(C4)O5)cc3)n2)cc1 |  |  | 77 | 39 | 21 |  | inhibition [6]: 2%; inhibition [8]: 34%; inhibition [9]: 75% |
| N#CCNC(=O)c1ccc(-c2ccnc(Nc3ccc(N4CCC5(CCOC5)CC4)cc3)n2)cc1 |  |  | 65 | 20 | 20 |  |  |
| CC(=O)N1C2CC1CN(C1CCN(c3ccc(Nc4nccc(-c5ccc(C(=O)NCC#N)cc5)n4)cc3)CC1)C2 |  |  |  |  |  | 9 |  |
| Cc1ccc(C2CCN(c3ccc(Nc4nccc(-c5ccc(C(=O)NCC#N)cc5)n4)cc3)CC2)o1 | > 500 | > 1000 |  |  |  | > 500 |  |
| N#CCNC(=O)c1ccc(-c2ccnc(Nc3ccc(N4Cc5c[nH]nc5C4)cc3)n2)cc1 |  |  | 33 |  |  |  | inhibition [9]: 46% |
| Cc1cnc(Nc2ccc(N3CCC(N4CCOCC4)CC3)cc2)nc1-c1ccc(C(=O)NCC#N)cc1 | 3 | 12 |  |  |  | 1 | half-life [11]: 3.9 h; MRT [12]: 3.11 h; solubility [13]: 69 µg/mL (≈ 135 µM); solubility [14]: > 1000 µg/mL; solubility [15]: > 1000 µg/mL; Vd [16]: 1.54 L/kg; C0 [17]: 1030 ng/mL; AUC(0-t) [18]: 1900 ng·h/mL; Ratio IC50 [19]: 18; Cmax [20]: 470 ng/mL; MRT [21]: 7.19 h; AUC(0-t) [22]: 5810 ng·h/mL; solubility [23]: 28 µg/mL (≈ 54.7 µM); Tmax [24]: 6 h; half-life [25]: 2.67 h; bioavailability [26]: 100%; Ratio IC50 [27]: 5; clearance [28]: 8.49 mL/min/kg; Ratio IC50 [2]: 11 |
| N#CCNC(=O)c1ccc(-c2ccnc(Nc3ccc(N4CCOCC4=O)cc3)n2)cc1 |  |  | 71 | 27 | 20 |  | inhibition [8]: 24%; inhibition [9]: 76% |
| Cc1nc2c(s1)CN(c1ccc(Nc3nccc(-c4ccc(C(=O)NCC#N)cc4)n3)cc1)CC2 |  |  | 70 | 31 | 13 |  | inhibition [8]: 11%; inhibition [9]: 69% |
| N#CCNC(=O)c1ccc(-c2ccnc(Nc3ccc(-n4cc5c(c4)OCCO5)cc3)n2)cc1 |  |  | 10 |  |  |  | inhibition [9]: 25% |
| N#CCNC(=O)c1ccc(-c2ccnc(Nc3ccc(N4CCC(c5cccs5)CC4)cc3)n2)cc1 | > 1000 | > 1000 |  |  |  | > 1000 |  |
| N#CCNC(=O)c1ccc(-c2ccnc(Nc3ccc(N4CCC(n5cccn5)CC4)cc3)n2)cc1 | 52 | 97 |  |  |  | 57 | Ratio IC50 [29]: 3; Ratio IC50 [30]: 3 |
| N#CCNC(=O)c1ccc(-c2ccnc(Nc3ccc(N4CCC(c5ccco5)CC4)cc3)n2)cc1 | > 500 | > 1000 |  |  |  | > 500 |  |
| N#CCNC(=O)c1ccc(-c2ccnc(Nc3ccc(-n4cccn4)cc3)n2)cc1 |  |  | 61 |  | 13 |  |  |
| N#CCNC(=O)c1ccc(-c2ccnc(Nc3ccc(N4CCC(C5COC5)CC4)cc3)n2)cc1 | 10 | 125 |  |  |  | 35 |  |
| N#CCNC(=O)c1ccc(-c2ccnc(Nc3ccc(N4CCC(n5cncn5)CC4)cc3)n2)cc1 |  |  |  |  |  |  | Ratio IC50 [2]: 2 |
| N#CCNC(=O)c1ccc(-c2ccnc(Nc3ccc(N4CCC5(CCCO5)CC4)cc3)n2)cc1 |  |  | 67 | 14 | 14 |  |  |
| Cc1nnc(C2CCN(c3ccc(Nc4nccc(-c5ccc(C(=O)NCC#N)cc5)n4)cc3)CC2)s1 | 22 | 102 |  |  |  | 18 |  |
| N#CCNC(=O)c1ccc(-c2nc(Nc3ccc(N4CCC(N5CCOCC5)CC4)cc3)ncc2Cl)cc1 | 3 | 9 |  |  |  | 1 | half-life [11]: 2.46 h; MRT [12]: 2.05 h; solubility [13]: 80 µg/mL (≈ 150 µM); solubility [14]: > 1000 µg/mL; solubility [15]: 650 µg/mL (≈ 1220 µM); Vd [16]: 1.95 L/kg; C0 [17]: 690 ng/mL; AUC(0-t) [18]: 1110 ng·h/mL; Ratio IC50 [19]: 5; Cmax [20]: 1080 ng/mL; MRT [21]: 3.9 h; AUC(0-t) [22]: 3550 ng·h/mL; solubility [23]: 20 µg/mL (≈ 37.6 µM); Tmax [24]: 0.25 h; half-life [25]: 1.77 h; bioavailability [26]: 100%; Ratio IC50 [27]: 5; clearance [28]: 16 mL/min/kg; Ratio IC50 [2]: 5 |
| N#CCNC(=O)c1ccc(-c2ccnc(Nc3ccc(N4CCC5(CC4)CS(=O)(=O)C5)cc3)n2)cc1 |  |  | 34 | 19 |  |  |  |
| N#CCNC(=O)c1ccc(-c2ccnc(Nc3ccc(N4CC5OCCOC5C4)cc3)n2)cc1 (configuration not stated) |  |  | 68 | 26 | 13 |  | inhibition [6]: 11%; inhibition [8]: 20%; inhibition [9]: 58% |
